Structures are written as SMILES. Where “and” joins values, the source holds several entries; their conditions need not be identical. Identical values can stand only once.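 96-well plates; 48 h exposure; 5 concentrations. Endpoints by linear interpolation between flanking doses. Not reached: highest tested concentration assigned. Here, GI50 denotes the concentration required for 50% inhibition of growth. TGI: total growth inhibition.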

Among the test systems are 786-0 renal; COLO 205 colon; HOP-62 NSCLC; LOX IMVI melanoma; M14 melanoma; OVCAR-3 ovarian; RXF 393 renal; SNB-19 CNS; U251 CNS.
Assay in all cases: NCI anticancer screen, dose series, 48 h

`COc1cccc(COc2cc(-n3cnc4ccccc43)sc2C(N)=O)c1`: the GI50 in the test on 786-0 renal was over 25 µM; in the test with COLO 205 colon, 4.75 µM; in the test on HOP-62 NSCLC, 5.34 µM; in the test with LOX IMVI melanoma it was over 25000 nM; with M14 melanoma it was over 25000 nM; in the test with OVCAR-3 ovarian, 5.09 µM. In addition, the GI50 is 5690 nM with RXF 393 renal, 14.4 µM with SNB-19 CNS and over 13.6 µM in the test on U251 CNS. Also, the TGI in the test on 786-0 renal, in the test on COLO 205 colon, in the test on HOP-62 NSCLC, with LOX IMVI melanoma, with M14 melanoma and in the test with OVCAR-3 ovarian was over 25 µM throughout. Moreover, the TGI with RXF 393 renal, with SNB-19 CNS and in the test on U251 CNS was over 25 µM throughout.

Take `O=C1/C(=C/c2ccc([N+](=O)[O-])cc2)COc2ccc(O)cc21`: the GI50 in the test with 786-0 renal was 3.05 µM; in the test with COLO 205 colon, 10.7 µM; in the test with HOP-62 NSCLC, 49.8 µM; in the test with LOX IMVI melanoma, 1680 nM; in the test with M14 melanoma it was 7780 nM; in the test on OVCAR-3 ovarian, 3.26 µM. For the same compound, the GI50 with RXF 393 renal is 2450 nM; in the test on SNB-19 CNS, 4.29 µM; with U251 CNS, 1.99 µM. Besides, the TGI is 11.7 µM with 786-0 renal; 55.7 µM in the test on COLO 205 colon; over 100 µM in the test on HOP-62 NSCLC; 3.23 µM in the test with LOX IMVI melanoma; over 100 µM in the test on M14 melanoma; 11.8 µM with OVCAR-3 ovarian. The figures for the TGI with RXF 393 renal, in the test on SNB-19 CNS and with U251 CNS were 17.7 µM, 30.8 µM and 4.13 µM, respectively.

`Cc1c(C)c(CC(=O)N2CC2)c(C)c(C)c1CC(=O)N1CC1`: the TGI in the test on 786-0 renal is over 65.9 µM; with COLO 205 colon, 29.5 µM; in the test on HOP-62 NSCLC it was 44.2 µM; in the test with LOX IMVI melanoma, over 49 µM; in the test on M14 melanoma it was 18.9 µM; in the test with OVCAR-3 ovarian it was 51.4 µM. Also, the TGI in the test with RXF 393 renal was 12.8 µM; in the test on SNB-19 CNS, over 100 µM; with U251 CNS, over 67.3 µM.

As for `Cc1ccc(-n2nc(C(C)(C)C)cc2NC(=O)NCc2cc(F)ccc2Oc2ccc3c(cnn3CCO)c2)cc1`, the GI50 was > 10 µM and 8.58 µM in the test with 786-0 renal; 0.795 µM and 1.86 µM with COLO 205 colon; > 10 µM and 8.95 µM in the test with HOP-62 NSCLC; 836 nM and 2370 nM in the test with LOX IMVI melanoma; 649 nM and 1310 nM with M14 melanoma; > 10 µM and 7.65 µM in the test with OVCAR-3 ovarian. For the same compound, the GI50 with RXF 393 renal is 7040 nM and 4640 nM; with SNB-19 CNS, > 10 µM and 17.9 µM; with U251 CNS, > 10 µM and 7.01 µM. Moreover, the TGI in the test with 786-0 renal was over 100 µM; with COLO 205 colon it was > 10 µM and 10.9 µM; in the test with HOP-62 NSCLC, over 81.5 µM; in the test on LOX IMVI melanoma it was over 38.1 µM; in the test with M14 melanoma, over 28.5 µM; in the test on OVCAR-3 ovarian, over 76.5 µM. The TGI is > 10 µM and 23.7 µM in the test with RXF 393 renal; over 100 µM with SNB-19 CNS; over 100 µM with U251 CNS.

As to `CC1(C)CC(=O)C(CC2C(=O)c3ccccc3C2=O)C(=O)C1`, the TGI in the test on 786-0 renal, in the test on COLO 205 colon, with HOP-62 NSCLC, in the test on LOX IMVI melanoma, with M14 melanoma and with OVCAR-3 ovarian was over 100 µM in each case. Besides, the TGI in the test with RXF 393 renal, in the test on SNB-19 CNS and in the test with U251 CNS was over 100 µM throughout.

For the compound `COc1ccc(Nc2nccc(N3CCN(c4c5ccc(Cl)cc5nc5ccc(OC)cc45)CC3)n2)cc1`, the GI50 with 786-0 renal was 5.4 µM; in the test on COLO 205 colon, 16.9 µM; in the test on HOP-62 NSCLC it was 38.7 µM; with LOX IMVI melanoma, 6110 nM; with M14 melanoma, 33000 nM; in the test with OVCAR-3 ovarian it was 11.1 µM. Also, the GI50 was 1780 nM with RXF 393 renal, 18.5 µM in the test on SNB-19 CNS and 4.36 µM with U251 CNS. The TGI in the test with 786-0 renal was 47.2 µM; in the test on COLO 205 colon it was over 100 µM; in the test on HOP-62 NSCLC, over 100 µM; in the test on LOX IMVI melanoma it was over 100 µM; in the test with M14 melanoma, over 100 µM; with OVCAR-3 ovarian it was over 100 µM. Moreover, the TGI is 6.8 µM in the test with RXF 393 renal, over 100 µM in the test on SNB-19 CNS and over 100 µM in the test on U251 CNS.

As for `COc1ccc(C(=O)c2nc3ccccc3n2CC(=O)c2ccc(Cl)cc2)cc1`, the GI50 with 786-0 renal is 3.88 µM; in the test with COLO 205 colon it was 11.3 µM; in the test with HOP-62 NSCLC it was 4.78 µM; in the test with LOX IMVI melanoma it was 6200 nM; with M14 melanoma, 2270 nM; in the test on OVCAR-3 ovarian, 2.55 µM. Also, the GI50 was 2600 nM in the test on RXF 393 renal, 4.32 µM in the test on SNB-19 CNS and 3.41 µM in the test on U251 CNS. The TGI is over 100 µM with 786-0 renal; over 83.7 µM in the test with COLO 205 colon; over 100 µM in the test on HOP-62 NSCLC; over 100 µM in the test with LOX IMVI melanoma; over 100 µM in the test with M14 melanoma; over 20.4 µM in the test on OVCAR-3 ovarian. For the same compound, the TGI in the test with RXF 393 renal was over 24.6 µM; in the test with SNB-19 CNS it was over 100 µM; in the test with U251 CNS, over 100 µM.

Turning to `CC(C)[O-].CC(C)[O-].CN(CCN(C)Cc1cc(F)cc(F)c1[O-])Cc1cc(F)cc(F)c1[O-].[Ti+4]`, the GI50 was 1.48 µM with 786-0 renal; 1.62 µM in the test with COLO 205 colon; 0.634 µM in the test with HOP-62 NSCLC; 784 nM with LOX IMVI melanoma; 638 nM in the test on M14 melanoma; 0.923 µM with OVCAR-3 ovarian. In addition, the GI50 in the test on RXF 393 renal is 357 nM; with SNB-19 CNS, 0.909 µM; in the test on U251 CNS it was 0.438 µM. Further, the TGI with 786-0 renal is 5.7 µM; with COLO 205 colon, 4.86 µM; with HOP-62 NSCLC it was 3.68 µM; with LOX IMVI melanoma it was 3.88 µM; in the test on M14 melanoma, 2.3 µM; in the test on OVCAR-3 ovarian it was 6.78 µM. In addition, the TGI with RXF 393 renal is 1.31 µM; in the test on SNB-19 CNS, 8.15 µM; in the test with U251 CNS it was 1.83 µM.

For the compound `COc1ccc(-c2c(C3=NCCCN3)nnn2-c2ccc([N+](=O)[O-])cc2)cc1`, the TGI with 786-0 renal, with COLO 205 colon, in the test with HOP-62 NSCLC, in the test with LOX IMVI melanoma, in the test on M14 melanoma and in the test with OVCAR-3 ovarian was over 100 µM throughout. Besides, the TGI with RXF 393 renal, in the test with SNB-19 CNS and in the test with U251 CNS was over 100 µM each time.

Turning to `CN(C)C(=S)Nc1nnc(Nc2ccccc2)s1`, the TGI with 786-0 renal, in the test on COLO 205 colon, in the test on HOP-62 NSCLC, in the test on LOX IMVI melanoma, with M14 melanoma and in the test with OVCAR-3 ovarian was over 100 µM throughout. Further, the TGI in the test with RXF 393 renal, in the test on SNB-19 CNS and in the test with U251 CNS was over 100 µM throughout.

(Values after PubChem BioAssay (NCI).)
